Source: patent US5110796A, “Prophylactic and therapeutic agents for cataracts” (priority 1988, dated 1992)
Where a name gives a salt, the structure may show the parent alone.

Legend:
X-ray induced cataracts = test system: X-ray induced cataracts
Procedure: Four-week old SLC Wistar rats are divided into three groups having ten animals in each group; the first group is a normal control group. The second group is an X-ray irradiated control group which is administered intraperitoneally 1 ml/kg of physiological saline solution three times a week after X-ray irradiation. For the third group, 20 mg/kg of glutathione monoisopropyl ester sulfate is administered intraperitoneally three times a week after X-ray irradiation. X-ray irradiation is carried out by irradiating the cephalic portion of conscious rats at 1,000 rad.
After X-ray irradiation, the lens are monitored every two weeks for opacity with a slit lamp. […] When the conditions of lens of the X-ray irradiated control group (the second group) reaches level IV or more (at 28 weeks), the tests are finished. Then the lens are extracted and measured for biochemical parameters [amounts of nonprotein-SH (Ellman's method), amounts of Na^+ /K^+ and Ca^++ (Atomic absorption method)].

mice = details: intraperitoneal injection to mice

## CC(C)OC(=O)CNC(=O)[C@H](CS)NC(=O)CC[C@H](N)C(=O)O [glutathione monoisopropyl ester sulfate, isopropylγ-L-glutamyl-L-cysteinylglycinate]
X-ray induced cataracts; 20 mg/kg i.p. three times a week after 1,000 rad X-ray irradiation, 28 weeks, in the X-ray irradiated control the V grade is greater than 50%
  share of the group with II grade lens score (seven grades I to VII, clear to opacitas): greater than 50%
X-ray induced cataracts; 20 mg/kg i.p. three times a week after X-ray irradiation, rats
  inhibiting action of cataracts: outstanding inhibiting action of cataracts
mice
  acute toxicity (LD50): approximately 5.3 g/kg
